Data published in patent publication US20100222311A1, “SOLID FORMULATIONS OF CRYSTALLINE COMPOUNDS” (PURDUE RESEARCH FOUNDATION, priority 2007, published 2010).

How the values were obtained:
[1] = X-Ray diffraction, crystallinity of extrudates; assay type: physicochemical; conditions: excipient extruded alone
Protocol: The crystal structure was characterized by X-Ray diffraction (LabX XRD6000, Shimadzu, Columbia, Md., USA). […] The powdered samples were placed in aluminum holders and measured in the reflection mode from 10 to 40° 2θ. The scanning rate was 5°/min using a sampling pitch of 0.02°. Each sample was measured in duplicate.

[2] = Dissolution test, USP paddle apparatus, UV quantification of active pharmaceutical ingredient release; assay type: physicochemical; conditions: water, 37° C., paddle 50 rpm; pure drug powder
Protocol: Pre-mixed, dry powder materials (10% griseofulvin in α-mannitiol or 50% griseofulvin in α-mannitiol) were extruded using a production scale extruder (Leistritz Mikro GL 27-28D, Leistritz, Nuermber, Germany). […] The shear rate was varied on two levels during extrusion by varying the barrel length, the number of die holes and screw configuration. The extrudates were characterized by a dissolution test in accordance to the preliminary experiments (see FIG. 10). The dissolution tests were performed in a paddle apparatus (VK7030, Varian, Cary, N.C., USA) in accordance with the USP at 50 rpm. Six samples of each batch were tested in water at 37° C. as dissolution media. For the dissolution test, the extrudates were cut in small pieces of approximately 2 mg. The active pharmaceutical ingredient release was quantified with a UV-photometer (DU 640, Beckman, Fellerton, USA; Cary 300, Varian, Victoria, Australia) using different wavelengths (griseofulvin 296 nm, phenytoin 220 nm and spironolactone 243 nm) for 120 min using a cuvette with a 50 mm path length.

Row | Structure (SMILES) | crystallization after extrusion, in words [1] | further results
1 | OC[C@@H](O)[C@@H](O)[C@H](O)[C@@H](O)CO [Sorbitol, sorbitol] | still predominantly amorphous after 24 h | –
2 | C[C@H](O)C(=O)O [L-(+)-lactic acid, L-(+)-Lactic acid] | – | time within which crystallization was completed [1]: ≤ 24 h
3 | OC[C@@H](O)[C@@H](O)[C@@H](O)CO [adonitol] | rapid crystallization | –
4 | COC1=CC(=O)C[C@@H](C)[C@]12Oc1c(Cl)c(OC)cc(OC)c1C2=O [griseofulvin] | – | time to attain 50% release [2]: six
